Data reported in US20080139614A1, “Treatment Of Stroke With Histamine H3 Inverse Agonists Or Histamine H3 Antagonists” (priority 2004, published 2008).

System: harmaline-induced tremor
Assay: harmaline-induced tremor model in rats
Assay type: in vivo
From the text: The identification of a compound as a histamine H3 inverse agonist or a histamine H3 antagonist may be readily determined without undue experimentation by methodology well known in the art. The efficacy of a histamine H3 inverse agonist or a histamine H3 antagonist in treating stroke may be readily determined without undue experimentation by methodology well known in the art, for example the harmaline-induced tremor model in rats, Sinton, et al., Pflugers Archive Eur. J. Phys., 414(1) 31-36 (1989). […] The ability of the histamine H3 inverse agonist or histamine H3 antagonist to be used in the present invention to treat stroke may be determined by these methods.

N#Cc1ccc(-c2cnc(OC3CCN(C4CCCC4)CC3)nc2)cc1 [2-(1-cyclopentylpiperidine-4-yloxy)-5-(4-cyanophenyl)pyrimidine]
reversal of harmaline-induced tremor (dose of 1 mg/kg): 8.4%
reversal of harmaline-induced tremor (dose of 3 mg/kg): 63.3%
reversal of harmaline-induced tremor (dose of 10 mg/kg): 84.4%
